Results on 23 molecules are retold here after ChEMBL document CHEMBL3045979, “Synthesis and antimicrobial activities of highly functionalised novel -lactam and thiazolidine-grafted tetrahydrobenzothiophenes” (2013).

Common to all, as to assay type: functional
One test has as its system Escherichia coli. Kind of test: Antibacterial activity against Escherichia coli ATCC 35218 assessed as growth inhibition at 10 ug/mL after 24 hr by agar disc diffusion method. The settings on record: ATCC 35218, 24 h, read-out: DIZ. (In general: In agar diffusion tests the substance spreads into inoculated agar from a disc or well.)
For the next test, the system named is Aspergillus fumigatus. Kind of test: Antifungal activity against Aspergillus fumigatus ATCC 28212 assessed as growth inhibition at 10 ug/mL after 72 hr by agar cup plate method. The note with it: ATCC 28212, 72 h, read-out: DIZ.
Another test deals with Aspergillus niger. Kind of test: Antifungal activity against Aspergillus niger ATCC 16404 assessed as growth inhibition at 10 ug/mL after 72 hr by agar cup plate method. The note with it: ATCC 16404, 72 h, read-out: DIZ.
The test system of the next test is Bacillus spizizenii. Kind of test: Antibacterial activity against Bacillus subtilis subsp. spizizenii ATCC 6633 assessed as growth inhibition at 10 ug/mL after 24 hr by agar disk diffusion method. The note with it: ATCC 6633, 24 h, read-out: DIZ.

Turning to `CS(=O)(=O)Nc1sc2c(c1C(=O)NN1C(=O)CSC1c1ccccc1Cl)CCCC2` (stereo unspecified), the zone of inhibition at 10 µg/mL with Escherichia coli turned out to be 11 mm; with Aspergillus fumigatus, 6 mm; with Aspergillus niger, 20 mm; in the test with Bacillus spizizenii it was 6 mm.

Turning to `CS(=O)(=O)Nc1sc2c(c1C(=O)NN1C(=O)C(Cl)C1c1coc3ccccc3c1=O)CCCC2` (stereo unspecified), the zone of inhibition at 10 µg/mL with Escherichia coli is 8 mm; in the test on Aspergillus fumigatus, 7 mm; in the test on Aspergillus niger it was 14 mm; in the test on Bacillus spizizenii, 6 mm.

Turning to `CS(=O)(=O)Nc1sc2c(c1C(=O)NN1C(=O)C(Cl)C1c1c[nH]c3ccccc13)CCCC2` (stereo unspecified), the zone of inhibition at 10 µg/mL with Escherichia coli stood at 9 mm; with Aspergillus fumigatus, 7 mm; in the test on Aspergillus niger, 12 mm; with Bacillus spizizenii, 7 mm.

Regarding `CS(=O)(=O)Nc1sc2c(c1C(=O)NN1C(=O)CSC1c1cc3ccccc3nc1Cl)CCCC2` (stereo unspecified), the zone of inhibition at 10 µg/mL stood at 8 mm in the test on Escherichia coli, 8 mm with Aspergillus fumigatus, 19 mm with Aspergillus niger and 6 mm in the test on Bacillus spizizenii.

`CC(=O)N1CCN(c2ccc(OCC3COC(Cn4ccnc4)(c4ccc(Cl)cc4Cl)O3)cc2)CC1` (stereo unspecified) [KETOCONAZOLE]: the zone of inhibition at 10 µg/mL with Aspergillus fumigatus is 10 mm; in the test with Aspergillus niger it was 25 mm.

As to `CS(=O)(=O)Nc1sc2c(c1C(=O)NN1C(=O)C(Cl)C1c1ccccc1Cl)CCCC2` (stereo unspecified), the zone of inhibition at 10 µg/mL was 7 mm with Escherichia coli, 6 mm in the test with Aspergillus fumigatus, 15 mm in the test with Aspergillus niger and 7 mm in the test with Bacillus spizizenii.

Turning to `CS(=O)(=O)Nc1sc2c(c1C(=O)NN1C(=O)CSC1c1coc3ccccc3c1=O)CCCC2` (stereo unspecified), the zone of inhibition at 10 µg/mL turned out to be 7 mm in the test with Escherichia coli, 4 mm in the test with Aspergillus fumigatus, 12 mm in the test with Aspergillus niger and 7 mm with Bacillus spizizenii.

`CS(=O)(=O)Nc1sc2c(c1C(=O)NN1C(=O)C(Cl)C1c1cc3ccccc3nc1Cl)CCCC2` (stereo unspecified): the zone of inhibition at 10 µg/mL turned out to be 6 mm with Escherichia coli, 6 mm in the test with Aspergillus fumigatus, 22 mm with Aspergillus niger and 6 mm with Bacillus spizizenii.

With `Clc1ccccc1C(c1ccccc1)(c1ccccc1)n1ccnc1` [CLOTRIMAZOLE], the zone of inhibition at 10 µg/mL is 20 mm with Aspergillus fumigatus and 21 mm with Aspergillus niger.

Regarding `CS(=O)(=O)Nc1sc2c(c1C(=O)NN1C(=O)CSC1c1cccc([N+](=O)[O-])c1)CCCC2` (stereo unspecified), the zone of inhibition at 10 µg/mL turned out to be 7 mm in the test on Escherichia coli, 6 mm in the test with Aspergillus fumigatus, 14 mm with Aspergillus niger and 7 mm with Bacillus spizizenii.

Regarding `CS(=O)(=O)Nc1sc2c(c1C(=O)NN1C(=O)C(Cl)C1c1ccc([N+](=O)[O-])cc1)CCCC2` (stereo unspecified), the zone of inhibition at 10 µg/mL in the test with Escherichia coli was found to be 10 mm; in the test on Aspergillus fumigatus, 6 mm; in the test with Aspergillus niger, 16 mm; in the test on Bacillus spizizenii, 8 mm.

As to `CS(=O)(=O)Nc1sc2c(c1C(=O)NN1C(=O)CSC1c1ccc(Cl)cc1)CCCC2` (stereo unspecified), the zone of inhibition at 10 µg/mL stood at 8 mm in the test with Escherichia coli, 7 mm in the test with Aspergillus fumigatus, 13 mm in the test with Aspergillus niger and 8 mm in the test on Bacillus spizizenii.

`CS(=O)(=O)Nc1sc2c(c1C(=O)NN1C(=O)C(Cl)C1c1cccc([N+](=O)[O-])c1)CCCC2` (stereo unspecified): the zone of inhibition at 10 µg/mL came to 10 mm in the test on Escherichia coli, 8 mm in the test on Aspergillus fumigatus, 18 mm in the test with Aspergillus niger and 7 mm in the test on Bacillus spizizenii.

Regarding `CS(=O)(=O)Nc1sc2c(c1C(=O)NN1C(=O)C(Cl)C1c1ccc(Cl)cc1)CCCC2` (stereo unspecified), the zone of inhibition at 10 µg/mL in the test on Escherichia coli amounted to 9 mm; in the test on Aspergillus fumigatus, 5 mm; in the test on Aspergillus niger it was 13 mm; in the test on Bacillus spizizenii, 8 mm.

In the case of `COc1ccc(C2SCC(=O)N2NC(=O)c2c(NS(C)(=O)=O)sc3c2CCCC3)cc1OC` (stereo unspecified), the zone of inhibition at 10 µg/mL with Escherichia coli was 7 mm; with Aspergillus fumigatus it was 6 mm; in the test on Aspergillus niger, 12 mm; in the test with Bacillus spizizenii it was 6 mm.

Regarding `CS(=O)(=O)Nc1sc2c(c1C(=O)NN1C(=O)C(Cl)C1c1ccccc1)CCCC2` (stereo unspecified), the zone of inhibition at 10 µg/mL with Escherichia coli was 6 mm; in the test on Aspergillus fumigatus, 4 mm; in the test on Aspergillus niger, 13 mm; in the test with Bacillus spizizenii, 6 mm.

In the case of `CS(=O)(=O)Nc1sc2c(c1C(=O)NN1C(=O)CSC1c1c[nH]c3ccccc13)CCCC2` (stereo unspecified), the zone of inhibition at 10 µg/mL in the test on Escherichia coli worked out at 10 mm; in the test with Aspergillus fumigatus it was 6 mm; in the test with Aspergillus niger, 18 mm; with Bacillus spizizenii it was 6 mm.

With `CS(=O)(=O)Nc1sc2c(c1C(=O)NN1C(=O)CSC1c1ccccc1)CCCC2` (stereo unspecified), the zone of inhibition at 10 µg/mL was determined as 6 mm with Escherichia coli, 5 mm with Aspergillus fumigatus, 9 mm in the test with Aspergillus niger and 5 mm in the test with Bacillus spizizenii.

As for `COc1ccc(C2SCC(=O)N2NC(=O)c2c(NS(C)(=O)=O)sc3c2CCCC3)cc1` (stereo unspecified), the zone of inhibition at 10 µg/mL in the test with Escherichia coli is 11 mm; in the test on Aspergillus fumigatus, 6 mm; in the test with Aspergillus niger, 14 mm; in the test on Bacillus spizizenii, 5 mm.

With `O=C(O)c1cn(C2CC2)c2cc(N3CCNCC3)c(F)cc2c1=O` [CIPROFLOXACIN], the zone of inhibition at 10 µg/mL in the test with Escherichia coli came to 12 mm; with Bacillus spizizenii it was 9 mm.

For the molecule `COc1ccc(C2C(Cl)C(=O)N2NC(=O)c2c(NS(C)(=O)=O)sc3c2CCCC3)cc1OC` (stereo unspecified), the zone of inhibition at 10 µg/mL in the test on Escherichia coli came to 8 mm; in the test with Aspergillus fumigatus it was 9 mm; with Aspergillus niger, 21 mm; in the test with Bacillus spizizenii, 7 mm.

`COc1ccc(C2C(Cl)C(=O)N2NC(=O)c2c(NS(C)(=O)=O)sc3c2CCCC3)cc1` (stereo unspecified): the zone of inhibition at 10 µg/mL with Escherichia coli came out at 8 mm; in the test on Aspergillus fumigatus it was 6 mm; with Aspergillus niger, 12 mm; in the test on Bacillus spizizenii, 6 mm.

On to `CS(=O)(=O)Nc1sc2c(c1C(=O)NN1C(=O)CSC1c1ccc([N+](=O)[O-])cc1)CCCC2` (stereo unspecified), for which the zone of inhibition at 10 µg/mL amounted to 10 mm in the test on Escherichia coli, 8 mm in the test with Aspergillus fumigatus, 15 mm in the test on Aspergillus niger and 8 mm with Bacillus spizizenii.
